Test results published in article PMC7288171, “Synergistic Effects of Thiosemicarbazides with Clinical Drugs against S. aureus” (Molecules, 2020).
≈ marks a conversion by molar mass, not a printed value.

Assays:
S. aureus ATCC 25923 [1] = system: S. aureus ATCC 25923; design: method as in PMID 25897586; conditions: S. a. ATCC 25923; compounds 1–5; cited from earlier work
S. aureus ATCC 6538 = system: S. aureus ATCC 6538; design: method as in PMID 25897586; conditions: S. a. ATCC 6538; compounds 1–5; cited from earlier work
MTT cytotoxicity assay = type: cell-based, human; conditions: human, Hs27 foreskin fibroblast cells (ATCC CRL-1634), 25 µg/mL, 24 h, vehicle control = 100%
Procedure: (§1) A critical factor in research and development of new antibacterial agents is their abilities to selectively target bacterial cells without toxicity to mammalian cells. Thus, in order to test if antibacterial activity of title thiosemicarbazides is not due to their general toxicity, their effect on mammalian cell viability was assessed using human foreskin fibroblast Hs27 cells (CRL-1634) via MTT assay.
(§2) Cytotoxic properties of the compounds were evaluated using human foreskin fibroblast cells Hs27 (ATCC CRL-1634) (ATCC, Manassas, VA, USA) that were cultured in DMEM-high glucose (Sigma Aldrich, St. Louis, MO, USA). Medium was supplemented with 10% fetal bovine serum (FBS, Sigma Aldrich), 100 U/mL of penicillin, and […] of streptomycin (PenStrep, Sigma Aldrich, St. Louis, MO, USA). Cells were incubated at 37 °C in a humidified atmosphere of 5% CO2. Stock solutions of the tested compounds were prepared dissolving in a sterile dimethyl sulfoxide (DMSO) to the concentration of 50 mg/mL. The cells were seeded into 96-well sterile plates (Nunc) at a cell density of 1 × 10^5 cells/mL. After 24 h of incubation, the medium was removed from each well, and then cells were incubated for the next 24 h with tested compounds (in a fixed dose of 25 µg/mL) in DMEM-high glucose containing 2% FBS. Control cells were cultured only with medium containing 2% addition of FBS. Cytotoxicity of the compounds was evaluated using MTT assay, which is based on the conversion of 3-(4,5-dimethylthiazol-2-yl)-2,5- diphenyltetrazolium bromide (MTT) into dark-blue formazan crystals. Briefly, after 24-h incubation of cells with varying concentrations of the tested compounds, culture medium was removed from the plates. Cells were washed with PBS, and then 100 µL of medium containing 10% MTT solution (5 mg/mL) was added to each well. Cells were incubated for the next 3 h at 37 °C in an atmosphere of 5% CO2. Next, 100 µL (per well) of 10% sodium dodecyl sulfate (SDS) buffer solution was added to dissolve formazan crystals and after an overnight incubation the absorbance was measured at 570 nm using a microplate reader (Epoch, BioTek Instruments, Inc., Winooski, VT, USA).

[2] = system: human foreskin fibroblast Hs27 cells (CRL-1634); assay: MTT cytotoxicity assay; type: cell-based; conditions: Homo sapiens, 24 h of treatment
Procedure: as §1, §2

[3] = system: S. epidermidis ATCC 12228; design: method as in PMID 25897586; conditions: S. e. ATCC 12228; compounds 1–5; cited from earlier work
B. cereus ATCC 10876 = system: B. cereus ATCC 10876; design: method as in PMID 25897586; conditions: B. c. ATCC 10876; compounds 1–5; cited from earlier work
M. luteus ATCC 10240 = system: M. luteus ATCC 10240; design: method as in PMID 25897586; conditions: M. l. ATCC 10240; compounds 1–5; cited from earlier work
S. aureus ATCC 25923 [4] = assay: Checkerboard broth dilution synergy assay; type: cell-based
Procedure: The microdilution checkerboard method was used to evaluate the synergistic effects between the thiosemicarbazides 1–9 and antibiotics, which were determined as the fractional inhibitory concentration indices (FICIs). For these experiments, amoxicillin, gentamicin, levofloxacin, linezolid, and vancomycin were selected to represent the five antimicrobial classes most commonly used in clinical practice. In this way, a total of 45 combinations of thiosemicarbazide-amoxicillin, thiosemicarbazide-gentamicin, thiosemicarbazide-levofloxacin, thiosemicarbazide-linezolid, and thiosemicarbazide-vancomycin against S. aureus ATCC 25923 were tested to identify in vitro synergy effects.
Interaction of the thiosemicarbazides 1–9 in combination with amoxicillin, gentamicin, levofloxacin, linezolid or vancomycin against S. aureus ATCC 25923 were analyzed using the checkerboard broth dilution method to determine the fractional inhibitory concentration indices (FICIs), calculated as: FIC = MIC of drug A in combination/MIC of drug A alone + MIC of drug B in combination/MIC of drug B alone. The calculated FICIs were interpreted as synergistic (FIC ≤ 0.5), additive (0.5 < FIC < 1), indifferent (1 ≤ FIC < 4.0), or antagonistic (FIC ≥ 4.0). The checkerboard assay included ciprofloxacin-carvedilol combination as positive control, whereas cefuroxime in combination with 4-(4-bromophenyl)-1-(3-fluorobezoyl)thiosemicarbazide served as negative control. The Z-factor value for the bioassay was 0.683.

[5] = target: T1, S. aureus topoisomerase IV (Staphylococcus aureus, UniProt P0C1S7+P0C1U9); assay: Topoisomerase IV decatenation assay; type: biochemical; conditions: in words; 50 and 100 µM tested (Figures S1–S3)
T1 construct: purchased Inspiralis, Norwich, UK
T1 sequence (P0C1U9 whole entry): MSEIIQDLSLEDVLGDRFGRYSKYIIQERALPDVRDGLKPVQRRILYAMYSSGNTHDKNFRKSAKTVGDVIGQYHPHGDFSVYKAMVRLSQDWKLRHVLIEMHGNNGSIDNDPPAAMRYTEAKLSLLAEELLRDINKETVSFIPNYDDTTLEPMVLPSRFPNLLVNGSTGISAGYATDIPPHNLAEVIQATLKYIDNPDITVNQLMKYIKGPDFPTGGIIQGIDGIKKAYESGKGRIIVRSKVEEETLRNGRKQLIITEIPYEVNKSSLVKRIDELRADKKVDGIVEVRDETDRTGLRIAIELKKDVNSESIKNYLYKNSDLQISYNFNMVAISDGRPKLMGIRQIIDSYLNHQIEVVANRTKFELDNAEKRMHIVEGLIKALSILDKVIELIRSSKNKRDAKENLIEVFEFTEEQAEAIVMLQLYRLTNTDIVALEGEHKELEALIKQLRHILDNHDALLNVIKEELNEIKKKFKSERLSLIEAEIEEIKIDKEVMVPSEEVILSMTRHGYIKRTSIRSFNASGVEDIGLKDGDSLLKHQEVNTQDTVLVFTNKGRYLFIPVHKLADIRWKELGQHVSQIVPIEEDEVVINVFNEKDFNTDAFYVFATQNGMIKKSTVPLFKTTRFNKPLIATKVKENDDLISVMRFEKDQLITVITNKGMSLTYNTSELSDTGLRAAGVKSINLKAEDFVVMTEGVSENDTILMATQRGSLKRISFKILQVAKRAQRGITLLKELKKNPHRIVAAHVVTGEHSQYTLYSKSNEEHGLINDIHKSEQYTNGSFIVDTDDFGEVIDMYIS
T1 sequence (P0C1S7 whole entry): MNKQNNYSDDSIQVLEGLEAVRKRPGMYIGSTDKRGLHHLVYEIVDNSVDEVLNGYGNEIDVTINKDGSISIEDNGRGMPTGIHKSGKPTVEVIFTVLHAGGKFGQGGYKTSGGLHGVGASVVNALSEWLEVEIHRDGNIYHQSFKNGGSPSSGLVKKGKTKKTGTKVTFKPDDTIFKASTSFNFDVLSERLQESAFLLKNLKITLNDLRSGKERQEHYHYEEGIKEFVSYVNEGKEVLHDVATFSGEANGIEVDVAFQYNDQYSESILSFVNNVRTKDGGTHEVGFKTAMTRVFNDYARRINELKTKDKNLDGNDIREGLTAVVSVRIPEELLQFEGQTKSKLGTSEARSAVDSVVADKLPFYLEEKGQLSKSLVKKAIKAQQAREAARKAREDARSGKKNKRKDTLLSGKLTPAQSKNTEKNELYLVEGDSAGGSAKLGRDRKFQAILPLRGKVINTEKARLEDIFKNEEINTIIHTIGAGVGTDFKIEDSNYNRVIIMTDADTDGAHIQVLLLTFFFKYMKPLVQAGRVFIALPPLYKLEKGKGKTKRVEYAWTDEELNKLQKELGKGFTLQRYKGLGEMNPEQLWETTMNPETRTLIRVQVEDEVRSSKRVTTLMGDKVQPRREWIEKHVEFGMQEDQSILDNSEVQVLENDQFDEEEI
Procedure: Inhibition of decatenation activity of S. aureus topoisomerase IV: The assay was performed using S. aureus topoisomerase IV decatenation kits (Inspiralis, Norwich, UK). Interlinked kDNA substrate (0.5 µg) was incubated with 1 unit of topoisomerase IV (Inspiralis, Norwich, UK), in the dedicated decatenation assay buffer supplied by the manufacturer, in the presence of varying concentrations of the test compounds. Reactions were carried out at 37 °C for 1 h and then terminated by the addition of equal volume of 2 × STOP Buffer and chloroform/iso-amyl alcohol. Samples were vortexed, centrifuged, and run through a 15 cm 1% agarose gel in TAE buffer for 1.5 h at 80 V. Gels were stained with ethidium bromide and visualized under UV light.

B. subtilis ATCC 6633 = system: B. subtilis ATCC 6633; design: method as in PMID 25897586; conditions: B. s. ATCC 6633; compounds 1–5; cited from earlier work
MRSA-1 = assay: MIC, clinical isolate of S. aureus; type: cell-based; conditions: Staphylococcus aureus; clinical isolate MRSA-1; read-out: MIC
Procedure: (§3) The antibacterial activity of the thiosemicarbazides 1–9 and antibiotics (amoxicillin, gentamicin, levofloxacin, linezolid, and vancomycin) was tested on the Gram-positive strains (Microbiologics, St. Cloud, MN, USA) (S. aureus ATCC 25923, S. aureus ATCC 6538, S. epidermidis ATCC 12228, B. subtilis ATCC 6633, B. cereus ATCC 10876, M. luteus ATCC 10240), the Gram-negative strains (Microbiologics, St. Cloud, MN, USA) (E. coli ATCC 25922, K. pneumoniae ATCC 13883, P. mirabilis ATCC 12453, P. aeruginosa ATCC 9027), and clinical isolates of S. aureus (Medical University of Lublin, Lublin, Poland) (MSSA-1, MSSA-2, MSSA-3, MSSA-4, MRSA-1).

MSSA-1 = assay: MIC, clinical isolate of S. aureus; type: cell-based; conditions: Staphylococcus aureus; clinical isolate MSSA-1; read-out: MIC
Procedure: as §3

MSSA-4 = assay: MIC, clinical isolate of S. aureus; type: cell-based; conditions: Staphylococcus aureus; clinical isolate MSSA-4; read-out: MIC
Procedure: as §3

MSSA-3 = assay: MIC, clinical isolate of S. aureus; type: cell-based; conditions: Staphylococcus aureus; clinical isolate MSSA-3; read-out: MIC
Procedure: as §3

MSSA-2 = assay: MIC, clinical isolate of S. aureus; type: cell-based; conditions: Staphylococcus aureus; clinical isolate MSSA-2; read-out: MIC
Procedure: as §3

| SMILES | MIC (S. aureus ATCC 25923 [1]) [µg/mL] | MIC (S. aureus ATCC 6538) [µg/mL] | viability at 24 h, 25 µg/mL (MTT cytotoxicity assay) [%] | IC50 [2] [µg/mL] | MIC [3] [µg/mL] | MIC (B. cereus ATCC 10876) [µg/mL] | MIC (M. luteus ATCC 10240) [µg/mL] | interaction in combination (S. aureus ATCC 25923 [4]; combination with amoxicillin) | interaction in combination (S. aureus ATCC 25923 [4]; combination with gentamicin) | interaction in combination (S. aureus ATCC 25923 [4]; combination with levofloxacin) | interaction in combination (S. aureus ATCC 25923 [4]; combination with linezolid) | interaction in combination (S. aureus ATCC 25923 [4]; combination with vancomycin) | inhibitory action against topoisomerase IV [5] | MIC (B. subtilis ATCC 6633) [µg/mL] | MIC (MRSA-1) [µg/mL] | MIC (MSSA-1) [µg/mL] | MIC (MSSA-4) [µg/mL] | MIC (MSSA-3) [µg/mL] | MIC (MSSA-2) [µg/mL] |
| --- | --- | --- | --- | --- | --- | --- | --- | --- | --- | --- | --- | --- | --- | --- | --- | --- | --- | --- | --- |
| Cc1ccccc1C(=O)NC(=S)NNC(=O)c1cccc(Cl)c1Cl [compound 1] | 15.63 (≈ 40.9 µM) | 15.63 (≈ 40.9 µM) | 78.5 | > 25 | 7.81 (≈ 20.4 µM) | 3.91 (≈ 10.2 µM) | 1.95 (≈ 5.1 µM) | additive | no interactions | no interactions | additive | no interactions | no inhibitory effects | 3.91 (≈ 10.2 µM) | 125 (≈ 327 µM) | > 500 | > 500 | > 500 | > 500 |
| O=C(NC(=S)NNC(=O)c1cccc(Cl)c1Cl)c1ccccc1Cl [compound 3] | 15.63 (≈ 38.8 µM) | 15.63 (≈ 38.8 µM) | 81 | > 25 | 7.81 (≈ 19.4 µM) | 3.91 (≈ 9.71 µM) | 0.98 (≈ 2.43 µM) | additively | additively | additively | additively | no interaction | no inhibitory effects | 3.91 (≈ 9.71 µM) | 125 (≈ 310 µM) | > 500 | 250 (≈ 621 µM) | > 500 | > 500 |
| O=C(NC(=S)NNC(=O)c1cccc(Cl)c1Cl)c1ccc(Cl)cc1 [compound 4] | 31.25 (≈ 77.6 µM) | 15.63 (≈ 38.8 µM) | 80.7 | > 25 | 7.81 (≈ 19.4 µM) | 3.91 (≈ 9.71 µM) | 1.95 (≈ 4.84 µM) | additive |  | synergistic | additive | did not display any synergism nor additivity |  | 0.98 (≈ 2.43 µM) | > 500 | > 500 | 500 (≈ 1240 µM) | > 500 | > 500 |
| O=C(NC(=S)NNC(=O)c1cccc(Cl)c1Cl)c1ccc([N+](=O)[O-])cc1 [compound 5] | 1.95 (≈ 4.72 µM) | 1.95 (≈ 4.72 µM) | 70.9 | > 25 | 1.95 (≈ 4.72 µM) | 0.98 (≈ 2.37 µM) | 0.49 (≈ 1.19 µM) | no interactions | no interactions | no interactions | synergistically | no interactions |  | 0.98 (≈ 2.37 µM) | 250 (≈ 605 µM) | > 500 | 500 (≈ 1210 µM) | > 500 | > 500 |
